Measured values reported in ChEMBL document CHEMBL4417633, “Inhibitory polypeptides specific to WNT inhibitors” (2017).
Where a SMILES comes first, the peptide text is derived from it.

Key:
[1] = biological target: T1, Dickkopf-related protein 1 (Homo sapiens, UniProt O94907); assay: Inhibition of biotin-labeled human recombinant DKK1 assessed as reduction in DKK1 interaction with LRP-6/Fc incubated overnight by chemiluminescence based Alpha-screen assay
T1 sequence (O94907 whole entry): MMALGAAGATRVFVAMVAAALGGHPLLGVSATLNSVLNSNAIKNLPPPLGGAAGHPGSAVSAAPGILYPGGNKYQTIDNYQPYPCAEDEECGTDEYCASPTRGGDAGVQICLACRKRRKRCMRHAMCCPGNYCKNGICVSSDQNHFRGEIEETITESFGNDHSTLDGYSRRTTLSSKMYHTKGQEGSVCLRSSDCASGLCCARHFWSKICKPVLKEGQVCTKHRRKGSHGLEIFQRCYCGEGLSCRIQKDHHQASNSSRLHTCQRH

[2] = biological target: T2, Dickkopf WNT-signaling pathway inhibitor 1 (Rattus norvegicus, UniProt A6I0Z0); assay: Inhibition of biotin-labeled rat recombinant DKK1 assessed as reduction in DKK1 interaction with LRP-6/Fc incubated overnight by chemiluminescence based Alpha-screen assay
T2 sequence (A6I0Z0 whole entry): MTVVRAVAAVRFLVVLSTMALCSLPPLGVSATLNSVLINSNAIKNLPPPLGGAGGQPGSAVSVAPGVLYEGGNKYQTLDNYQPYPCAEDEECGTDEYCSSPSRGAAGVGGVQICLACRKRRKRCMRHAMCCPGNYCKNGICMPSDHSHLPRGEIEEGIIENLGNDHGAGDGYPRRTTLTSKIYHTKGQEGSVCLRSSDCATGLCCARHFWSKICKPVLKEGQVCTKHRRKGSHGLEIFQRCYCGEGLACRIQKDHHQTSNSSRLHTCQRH

CSCC[C@H](NC(=O)[C@@H]1CCCN1C(=O)[C@H](Cc1ccc(O)cc1)NC(=O)[C@H](CS)NC(=O)[C@H](Cc1cnc[nH]1)NC(=O)[C@@H]1CCCN1C(=O)[C@H](Cc1cnc[nH]1)NC(=O)[C@H](CO)NC(=O)CNC(=O)[C@H](CS)NC(=O)[C@H](CCC(N)=O)NC(=O)[C@H](Cc1ccccc1)NC(=O)[C@H](Cc1ccc(O)cc1)NC(=O)[C@H](CO)NC(=O)[C@H](C)NC(=O)[C@@H]1CCCN1C(=O)[C@@H](N)CS)C(=O)N[C@@H](CCC(=O)O)C(=O)N[C@@H](Cc1c[nH]c2ccccc12)C(=O)N[C@@H](CCCNC(=N)N)C(=O)N[C@@H](CS)C(=O)N[C@@H](CC(=O)O)C(=O)NCC(=O)N[C@@H](Cc1ccccc1)C(=O)N[C@@H](CCC(N)=O)C(=O)N[C@@H](CC(=O)O)C(=O)N[C@@H](CS)C(=O)N[C@@H](CCC(=O)O)C(=O)N[C@@H](CC(=O)O)C(=O)NCC(=O)N[C@@H](CO)C(=O)N[C@@H](CC(=O)O)C(=O)N[C@@H](CCC(=O)O)C(=O)N[C@@H](CC(C)C)C(=O)NCC(=O)N[C@@H](CS)C(=O)N1CCC[C@H]1C(=O)N[C@@H](Cc1ccc(O)cc1)C(=O)N[C@@H](CCCNC(=N)N)C(=O)N[C@H](C(=O)O)[C@@H](C)O (H-CPASYFQCGSHPHCYPMEWRCDGFQDCEDGSDELGCPYRT-OH)
IC50 [1]: ≤ 1 nM
IC50 [2]: ≤ 1 nM

CSCC[C@H](NC(=O)[C@@H]1CCCN1C(=O)[C@H](Cc1ccc(O)cc1)NC(=O)[C@H](CS)NC(=O)[C@H](CO)NC(=O)[C@H](CC(N)=O)NC(=O)[C@H](CC(N)=O)NC(=O)[C@H](CC(N)=O)NC(=O)[C@H](CCCNC(=N)N)NC(=O)[C@H](CS)NC(=O)[C@H](CCC(N)=O)NC(=O)[C@H](Cc1ccccc1)NC(=O)[C@H](Cc1ccc(O)cc1)NC(=O)[C@H](CO)NC(=O)[C@H](C)NC(=O)[C@@H]1CCCN1C(=O)[C@@H](N)CS)C(=O)N[C@@H](CCC(=O)O)C(=O)N[C@@H](Cc1c[nH]c2ccccc12)C(=O)N[C@@H](CCCNC(=N)N)C(=O)N[C@@H](CS)C(=O)N[C@@H](CC(=O)O)C(=O)NCC(=O)N[C@@H](Cc1ccccc1)C(=O)N[C@@H](CCC(=O)O)C(=O)N[C@@H](CC(=O)O)C(=O)N[C@@H](CS)C(=O)N[C@@H](CCC(=O)O)C(=O)N[C@@H](CC(=O)O)C(=O)NCC(=O)N[C@@H](CO)C(=O)N[C@@H](CC(=O)O)C(=O)N[C@@H](CCC(=O)O)C(=O)N[C@@H](CCCNC(=N)N)C(=O)NCC(=O)N[C@@H](CS)C(=O)N1CCC[C@H]1C(=O)N[C@@H](Cc1ccc(O)cc1)C(=O)N[C@@H](CCCNC(=N)N)C(=O)N[C@H](C(=O)O)[C@@H](C)O (H-CPASYFQCRNNNSCYPMEWRCDGFEDCEDGSDERGCPYRT-OH)
IC50 [1]: ≤ 1 nM
IC50 [2]: ≤ 1 nM

CC[C@H](C)[C@H](NC(=O)[C@H](CCCCN)NC(=O)[C@H](CC(=O)O)NC(=O)[C@H](C)NC(=O)[C@H](CS)NC(=O)[C@H](CCSC)NC(=O)[C@H](Cc1ccccc1)NC(=O)[C@H](CCC(=O)O)NC(=O)[C@H](CC(N)=O)NC(=O)[C@H](CO)NC(=O)[C@@H]1CCCN1C(=O)[C@@H](N)CS)C(=O)N[C@@H](CS)C(=O)N[C@@H](Cc1ccccc1)C(=O)N1CCC[C@H]1C(=O)N[C@@H](CC(C)C)C(=O)N[C@@H](CO)C(=O)N[C@@H](Cc1ccccc1)C(=O)N[C@@H](CC(C)C)C(=O)N[C@@H](CS)C(=O)N[C@@H](CC(=O)O)C(=O)NCC(=O)N[C@@H](CCC(=O)O)C(=O)N[C@@H](CC(N)=O)C(=O)N[C@@H](CC(=O)O)C(=O)N[C@@H](CS)C(=O)N[C@@H](CC(C)C)C(=O)N[C@@H](CC(=O)O)C(=O)NCC(=O)N[C@@H](CO)C(=O)N[C@@H](CC(=O)O)C(=O)N[C@@H](CCC(=O)O)C(=O)N[C@@H](CC(=O)O)C(=O)N[C@@H](Cc1ccc(O)cc1)C(=O)N[C@@H](CS)C(=O)N1CCC[C@H]1C(=O)N[C@@H](CO)C(=O)N[C@@H](CCCNC(=N)N)C(=O)N[C@H](C(=O)O)[C@@H](C)O (H-CPSNEFMCADKICFPLSFLCDGENDCLDGSDEDYCPSRT-OH)
IC50 [1]: ≤ 1 nM
IC50 [2]: ≤ 1 nM

CSCC[C@H](NC(=O)[C@@H]1CCCN1C(=O)[C@H](Cc1ccc(O)cc1)NC(=O)[C@H](CS)NC(=O)[C@H](Cc1cnc[nH]1)NC(=O)[C@@H]1CCCN1C(=O)[C@H](Cc1cnc[nH]1)NC(=O)[C@H](CC(N)=O)NC(=O)[C@H](CCCNC(=N)N)NC(=O)[C@H](CS)NC(=O)[C@H](CCC(N)=O)NC(=O)[C@H](Cc1ccccc1)NC(=O)[C@H](Cc1ccc(O)cc1)NC(=O)[C@H](CO)NC(=O)[C@H](C)NC(=O)[C@@H]1CCCN1C(=O)[C@@H](N)CS)C(=O)N[C@@H](CCC(=O)O)C(=O)N[C@@H](Cc1c[nH]c2ccccc12)C(=O)N[C@@H](CCCNC(=N)N)C(=O)N[C@@H](CS)C(=O)N[C@@H](CC(=O)O)C(=O)NCC(=O)N[C@@H](Cc1ccccc1)C(=O)N1CCC[C@H]1C(=O)N[C@@H](CC(=O)O)C(=O)N[C@@H](CS)C(=O)N[C@H](C(=O)N[C@@H](CC(=O)O)C(=O)NCC(=O)N[C@@H](CO)C(=O)N[C@@H](CC(=O)O)C(=O)N[C@@H](CCC(=O)O)C(=O)N[C@@H](CCCCN)C(=O)NCC(=O)N[C@@H](CS)C(=O)N1CCC[C@H]1C(=O)N[C@@H](Cc1ccc(O)cc1)C(=O)N[C@@H](CCCNC(=N)N)C(=O)N[C@H](C(=O)O)[C@@H](C)O)C(C)C (H-CPASYFQCRNHPHCYPMEWRCDGFPDCVDGSDEKGCPYRT-OH)
IC50 [1]: ≤ 1 nM
IC50 [2]: ≤ 1 nM

CSCC[C@H](NC(=O)[C@@H]1CCCN1C(=O)[C@H](Cc1ccc(O)cc1)NC(=O)[C@H](CS)NC(=O)[C@H](Cc1cnc[nH]1)NC(=O)[C@@H]1CCCN1C(=O)[C@H](Cc1cnc[nH]1)NC(=O)[C@H](CCCCN)NC(=O)[C@H](CC(C)C)NC(=O)[C@H](CS)NC(=O)[C@H](CCC(N)=O)NC(=O)[C@H](Cc1ccccc1)NC(=O)[C@H](Cc1ccc(O)cc1)NC(=O)[C@H](CO)NC(=O)[C@H](C)NC(=O)[C@@H]1CCCN1C(=O)[C@@H](N)CS)C(=O)N[C@@H](CCC(=O)O)C(=O)N[C@@H](Cc1c[nH]c2ccccc12)C(=O)N[C@@H](CCCNC(=N)N)C(=O)N[C@@H](CS)C(=O)N[C@@H](CC(=O)O)C(=O)NCC(=O)N[C@@H](Cc1ccccc1)C(=O)N[C@@H](CC(=O)O)C(=O)N[C@@H](CC(=O)O)C(=O)N[C@@H](CS)C(=O)N[C@@H](CCC(=O)O)C(=O)N[C@@H](CC(=O)O)C(=O)NCC(=O)N[C@@H](CO)C(=O)N[C@@H](CC(=O)O)C(=O)N[C@@H](CCC(=O)O)C(=O)N[C@H](C(=O)NCC(=O)N[C@@H](CS)C(=O)N1CCC[C@H]1C(=O)N[C@@H](Cc1ccc(O)cc1)C(=O)N[C@@H](CCCNC(=N)N)C(=O)N[C@H](C(=O)O)[C@@H](C)O)[C@@H](C)O (H-CPASYFQCLKHPHCYPMEWRCDGFDDCEDGSDETGCPYRT-OH)
IC50 [1]: ≤ 1 nM
IC50 [2]: ≤ 1 nM

CC[C@H](C)[C@H](NC(=O)[C@H](CCCCN)NC(=O)[C@H](CC(=O)O)NC(=O)[C@@H]1CCCN1C(=O)[C@H](CS)NC(=O)[C@H](CCSC)NC(=O)[C@H](Cc1ccccc1)NC(=O)[C@H](CCC(=O)O)NC(=O)[C@H](CC(N)=O)NC(=O)[C@H](CO)NC(=O)[C@@H]1CCCN1C(=O)[C@@H](N)CS)C(=O)N[C@@H](CS)C(=O)N[C@@H](Cc1ccccc1)C(=O)N1CCC[C@H]1C(=O)N[C@@H](CC(C)C)C(=O)N[C@@H](CO)C(=O)N[C@@H](Cc1ccccc1)C(=O)N[C@@H](CC(C)C)C(=O)N[C@@H](CS)C(=O)N[C@@H](CC(=O)O)C(=O)NCC(=O)N[C@@H](CCC(=O)O)C(=O)N[C@@H](CC(N)=O)C(=O)N[C@@H](CC(=O)O)C(=O)N[C@@H](CS)C(=O)N[C@@H](CCC(=O)O)C(=O)N[C@@H](CC(=O)O)C(=O)NCC(=O)N[C@@H](CO)C(=O)N[C@@H](CC(=O)O)C(=O)N[C@@H](CCC(=O)O)C(=O)N[C@@H](CC(=O)O)C(=O)N[C@@H](Cc1ccc(O)cc1)C(=O)N[C@@H](CS)C(=O)N1CCC[C@H]1C(=O)N[C@@H](CO)C(=O)N[C@@H](CCCNC(=N)N)C(=O)N[C@H](C(=O)O)[C@@H](C)O (H-CPSNEFMCPDKICFPLSFLCDGENDCEDGSDEDYCPSRT-OH)
IC50 [1]: ≤ 1 nM
IC50 [2]: ≤ 1 nM

CSCC[C@H](NC(=O)[C@H](Cc1ccccc1)NC(=O)[C@H](CCC(=O)O)NC(=O)[C@H](Cc1ccc(O)cc1)NC(=O)[C@H](CO)NC(=O)[C@@H]1CCCN1C(=O)[C@@H](N)CS)C(=O)N[C@@H](CS)C(=O)N[C@@H](C)C(=O)N[C@@H](CC(=O)O)C(=O)N[C@@H](CCCCN)C(=O)N[C@@H](CCSC)C(=O)N[C@@H](CS)C(=O)N[C@@H](Cc1ccccc1)C(=O)N1CCC[C@H]1C(=O)N[C@@H](CC(C)C)C(=O)N[C@@H](CO)C(=O)N[C@@H](Cc1ccccc1)C(=O)N[C@@H](CC(C)C)C(=O)N[C@@H](CS)C(=O)N[C@@H](CC(=O)O)C(=O)NCC(=O)N[C@@H](CCC(=O)O)C(=O)N[C@@H](CC(N)=O)C(=O)N[C@@H](CC(=O)O)C(=O)N[C@@H](CS)C(=O)N[C@@H](CCC(=O)O)C(=O)N[C@@H](CC(=O)O)C(=O)NCC(=O)N[C@@H](CO)C(=O)N[C@@H](CC(=O)O)C(=O)N[C@@H](CCC(=O)O)C(=O)N[C@@H](CC(=O)O)C(=O)N[C@@H](Cc1ccc(O)cc1)C(=O)N[C@@H](CS)C(=O)N1CCC[C@H]1C(=O)N[C@@H](CO)C(=O)N[C@@H](CCCNC(=N)N)C(=O)N[C@H](C(=O)O)[C@@H](C)O (H-CPSYEFMCADKMCFPLSFLCDGENDCEDGSDEDYCPSRT-OH)
IC50 [1]: ≤ 1 nM
IC50 [2]: ≤ 1 nM
